Test results taken from patent publication US8389523B2, “Substituted quinoxaline and an agrochemical composition thereof” (Kumiai Chemical Industry Co., Ltd., priority 2007, dated 2013).

Key:
Type in all cases: in vivo
Design in all cases: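 grade 0 to 5 of growth suppression where 5 is 90% or more and 0 below 10%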
[1] = system: Abutilon theophrasti medicus; assay: Herbicidal effects in upland field foliar treatment (Test Example 3); settings: criteria of Table 138; for herbicidal effects on Abutilon theophrasti medicus: 1000 g of the active ingredient per hectare, 14th day after the treatment, wettable powder; for herbicidal effect (index) on Abutilon theophrasti medicus: 1000 g active ingredient per hectare, 14th day after treatment
Procedure: (§1) Test Example 3 Test on Herbicidal Effects in Upland Field Foliar Treatment A 80-cm^2 plastic pot was filled with upland field soil. Seeds of Echinochloa crus-galli (L.) P. Beauv. var. crus-galli, Abutilon theophrasti medicus and Amaranthus viridis L. were sowed, and the plants were grown for two weeks in a greenhouse. A wettable powder formulation prepared according to Preparation Example 1 was diluted with water, and was sprayed with a small sprayer to perform foliar application over the entirety of plants from the upper side, in an amount equivalent to 1000 liters per hectare, such that 1000 g of the active ingredient per hectare was applied. Thereafter, the plants were grown in a greenhouse, and on the 14th day after the treatment, the herbicidal effects were investigated according to the criteria described in the Table 138 shown above.

[2] = system: Echinochloa crus-galli (L.) P. Beauv. var. crus-galli; assay: as above; settings: criteria of Table 138; for herbicidal effects on Echinochloa crus-galli (L.) P. Beauv. var. crus-galli: 1000 g of the active ingredient per hectare, 14th day after the treatment, wettable powder; for herbicidal effect (index) on Echinochloa crus-galli (L.) P. Beauv. var. crus-galli: 1000 g active ingredient per hectare, 14th day after treatment
Procedure: as §1

Amaranthus viridis L. = assay: as above; settings: criteria of Table 138; for herbicidal effects on Amaranthus viridis L.: 1000 g of the active ingredient per hectare, 14th day after the treatment, wettable powder; for herbicidal effect (index) on Amaranthus viridis L.: 1000 g active ingredient per hectare, 14th day after treatment
Procedure: as §1

[3] = system: Echinochloa oryzicola Vasing; assay: Herbicidal effects in paddy field soil treatment (Test Example 1); settings: paddy field soil treatment; 1000 g of the active ingredient per hectare; wettable powder added dropwise on water surface; 21st day after treatment
How it was run: (§2)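 Application rate was 1000 g active ingredient per hectare, delivered as a diluted wettable powder onto the surface of 3 cm flood water, the day after seeds were sown in paddy soil. Effects were rated 21 days later.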

[4] = system: Scirpus juncoides Roxb. var. ohwianus. T. Koyama; assay: as above; settings: paddy field soil treatment; 1000 g of the active ingredient per hectare; wettable powder added dropwise on water surface; 21st day after treatment
How it was run: as §2

[5] = system: Monochoria vaginalis (Burm. f.) Presl var. plantaginea (Roxb.) Solms-Laub.; assay: as above; settings: paddy field soil treatment; 1000 g of the active ingredient per hectare; wettable powder added dropwise on water surface; 21st day after treatment
How it was run: as §2

Row | SMILES | herbicidal effects on Abutilon theophrasti medicus [1] | herbicidal effects on Echinochloa crus-galli (L.) P. Beauv. var. crus-galli [2] | herbicidal effects on Amaranthus viridis L. (Amaranthus viridis L.) | Herbicidal effects index, Echinochloa oryzicola Vasing [3] | Herbicidal effects index, Scirpus juncoides Roxb. var. ohwianus. T. Koyama [4] | Herbicidal effects index, Monochoria vaginalis (Burm. f.) Presl var. plantaginea (Roxb.) Solms-Laub. [5] | herbicidal effect (index) on Abutilon theophrasti medicus [1] | herbicidal effect (index) on Echinochloa crus-galli (L.) P. Beauv. var. crus-galli [2] | herbicidal effect (index) on Amaranthus viridis L. (Amaranthus viridis L.)
1 | CC(C)Oc1cccc(-n2c(=O)c(C(=O)C3=C(O)CCCC3=O)nc3ccccc32)c1 [II-74] | 4 | 3 | 4 | 5 | 5 | 5 | – | – | –
2 | O=C1CCCC(O)=C1C(=O)c1nc2ccccc2n(-c2ccc(O)cc2)c1=O [II-51] | 5 | 4 | 5 | 5 | 5 | 5 | – | – | –
3 | COc1ccc(-n2c(=O)c(C(=O)C3=C(O)CCCC3=O)nc3cccc(OC)c32)cc1 [II-257] | 4 | 5 | 5 | 5 | 5 | 5 | – | – | –
4 | C[S+]([O-])CCOCn1c(=O)c(C(=O)C2=C(O)CCCC2=O)nc2ccccc21 (stereo not drawn) [I-67] | – | – | – | 4 | 5 | 5 | 5 | 4 | 5
5 | CSCCn1c(=O)c(C(=O)C2=C(O)CCCC2=O)nc2ccccc21 [Compound I-91] | – | – | – | 5 | 5 | 5 | 5 | 5 | 5
6 | CS(=O)(=O)CCn1c(=O)c(C(=O)C2=C(O)CCCC2=O)nc2ccccc21 [Compound I-92] | – | – | – | 4 | 5 | 5 | 5 | 5 | 5
7 | Cc1cc(-n2c(=O)c(C(=O)C3=C(O)CCCC3=O)nc3ccccc32)ccc1F [II-214] | 5 | 5 | 5 | 5 | 5 | 5 | – | – | –
8 | O=C1CCCC(O)=C1C(=O)c1nc2ccccc2n(-c2ccc(OCC3CCCO3)cc2)c1=O (stereo not drawn) [II-116] | 4 | 4 | 5 | 5 | 5 | 5 | – | – | –
9 | C#CCn1c(=O)c(C(=O)C2=C(O)CCCC2=O)nc2ccccc21 [I-35] | – | – | – | 5 | 5 | 5 | 5 | 4 | 5
10 | CS(=O)(=O)c1cccc(-n2c(=O)c(C(=O)C3=C(O)CCCC3=O)nc3ccccc32)c1 [II-124] | 4 | 5 | 5 | 4 | 5 | 5 | – | – | –
11 | COc1cccc2nc(C(=O)C3=C(O)CCCC3=O)c(=O)n(-c3ccccc3)c12 [II-256] | 4 | 5 | 5 | 5 | 5 | 5 | – | – | –
12 | CSc1cccc(-n2c(=O)c(C(=O)C3=C(O)CCCC3=O)nc3ccccc32)c1 [II-121] | 4 | 4 | 4 | 4 | 5 | 5 | – | – | –
13 | O=C1CCCC(O)=C1C(=O)c1nc2ccccc2n(Cc2ccccc2Cl)c1=O [I-111] | – | – | – | 5 | 5 | 5 | 5 | 5 | 5
14 | CCCCCCn1c(=O)c(C(=O)C2=C(O)CCCC2=O)nc2ccccc21 [Compound I-22] | – | – | – | 5 | 5 | 5 | 5 | 4 | 5
15 | CN(C)c1ccc(-n2c(=O)c(C(=O)C3=C(O)CCCC3=O)nc3ccccc32)cc1 [II-210] | 5 | 4 | 5 | 5 | 5 | 5 | – | – | –
16 | CCCOc1cccc(-n2c(=O)c(C(=O)C3=C(O)CCCC3=O)nc3ccccc32)c1 [II-71] | 5 | 4 | 5 | 4 | 5 | 5 | – | – | –
17 | O=C1CCCC(O)=C1C(=O)c1nc2ccccc2n(C2CCS(=O)(=O)C2)c1=O (stereo not drawn) [I-137] | – | – | – | 5 | 5 | 5 | 5 | 4 | 5
18 | COc1ccc2nc(C(=O)C3=C(O)CCCC3=O)c(=O)n(-c3cc(F)c(OC)c(F)c3)c2c1 [II-255] | 4 | 5 | 5 | 5 | 5 | 5 | – | – | –
